Results: patent US8969565B2, “Imidazo[1,2-b]pyridazine-based compounds, compositions comprising them, and methods of their use” (Lexicon Pharmaceuticals, Inc., priority 2012, dated 2015)
Where a name gives a salt, the structure may show the parent alone.

Key:
AAK1 [1] = target: T1, AAK1 (Homo sapiens, UniProt Q2M2I8); test: HEK281 cell-based assay (phospho-mu2 Western blot in transfected HEK293F cells); details: 3 hours incubation, read-out: CBA IC50
T1 construct: HA; expressed in transfected cells; host or cells: HEK293F
Summary of the method: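 HEK293F cells co-transfected with full-length human AAK1/HA and Flag/AP2M1 were treated next day with 5 compound concentrations (3-fold dilutions) in DMEM+0.5% FBS for 3 hours at 37° C. Lysates were Western blotted for phospho-mu2, with total mu2 detected by anti-Flag.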

AAK1 [2] = target: T1, AAK1; test: P81 filter plate assay; format: biochemical; details: full-length human AAK1, Mu2 substrate

T1 sequence (Q2M2I8 1-863 isoform Q2M2I8-2): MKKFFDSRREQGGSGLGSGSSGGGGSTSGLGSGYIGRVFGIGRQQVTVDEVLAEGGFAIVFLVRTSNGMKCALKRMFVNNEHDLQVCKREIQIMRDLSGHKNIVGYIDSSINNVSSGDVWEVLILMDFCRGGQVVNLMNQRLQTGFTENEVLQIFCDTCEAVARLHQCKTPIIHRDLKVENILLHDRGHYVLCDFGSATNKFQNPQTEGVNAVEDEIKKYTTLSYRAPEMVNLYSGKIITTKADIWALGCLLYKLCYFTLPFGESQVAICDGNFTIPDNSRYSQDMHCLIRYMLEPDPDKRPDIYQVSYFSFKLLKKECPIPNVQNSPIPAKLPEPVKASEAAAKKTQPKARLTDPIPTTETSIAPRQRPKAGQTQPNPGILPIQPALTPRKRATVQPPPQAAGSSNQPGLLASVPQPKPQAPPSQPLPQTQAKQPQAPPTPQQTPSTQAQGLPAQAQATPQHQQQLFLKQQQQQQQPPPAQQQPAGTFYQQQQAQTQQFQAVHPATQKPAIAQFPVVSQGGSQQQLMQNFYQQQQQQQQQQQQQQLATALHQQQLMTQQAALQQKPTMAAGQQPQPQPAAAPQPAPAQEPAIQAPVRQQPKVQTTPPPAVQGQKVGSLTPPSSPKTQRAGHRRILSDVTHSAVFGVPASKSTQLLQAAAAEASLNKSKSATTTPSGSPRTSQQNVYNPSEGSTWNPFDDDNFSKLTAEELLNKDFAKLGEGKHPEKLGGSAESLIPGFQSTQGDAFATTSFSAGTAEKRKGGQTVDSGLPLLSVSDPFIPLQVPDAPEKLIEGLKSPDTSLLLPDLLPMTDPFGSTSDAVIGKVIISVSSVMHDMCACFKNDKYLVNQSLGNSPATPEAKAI

| melting point | IC50 (AAK1 [1]) [nM] | IC50 (AAK1 [2]) [nM] | SMILES |
| --- | --- | --- | --- |
| 154 to 155 °C | – | – | CN(CCNc1ccc2ncc(-c3ccc(C(N)=O)cc3)n2n1)C(=O)NC(C)(C)C |
| 232 to 233 °C (dec.) | – | – | CC(C)OC(=O)N1CCN(c2ccc3ncc(-c4ccccc4)n3n2)CC1 (as salt: hydrochloride) [4-(3-Phenyl-imidazo[1,2-b]pyridazin-6-yl)-piperazine-1-carboxylic acid isopropyl ester] |
| 217 to 218 °C (dec.) | – | – | COc1cnccc1-c1cnc2ccc(N3CCN(C(=O)OC(C)C)CC3)nn12 (as salt: hydrochloride) [Example 5.6.103, 4-[3-(3-Methoxy-pyridin-4-yl)-imidazo[1,2-b]pyridazin-6-yl]-piperazine-1-carboxylic acid isopropyl ester] |
| 299 to 300 °C | – | – | FC(F)(F)CCCNc1ccc2ncc(-c3cccc4c3OCC4)n2n1 (as salt: hydrochloride) [Example 5.6.106, [3-(2,3-Dihydro-benzofuran-7-yl)-imidazo[1,2-b]pyridazin-6-yl]-(4,4,4-trifluoro-butyl)-amine] |
| 195 to 196 °C (dec.) | – | – | CC(C)OC(=O)N1CCN(c2ccc3ncc(-c4ccncc4)n3n2)CC1 (as salt: hydrochloride) [Example 5.6.108, 4-(3-Pyridin-4-yl-imidazo[1,2-b]pyridazin-6-yl)-piperazine-1-carboxylic acid isopropyl ester] |
| 211 to 212 °C (dec.) | – | – | COc1cnccc1-c1cnc2ccc(N3CCN(C(=O)CC(C)(C)C)CC3)nn12 (as salt: hydrochloride) [Example 5.6.114, 1-(4-(3-(3-Methoxypyridin-4-yl)imidazo[1,2-b]pyridazin-6-yl)piperazin-1-yl)-3,3-dimethylbutan-1-one] |
| 243 to 244 °C (dec.) | – | – | COc1ccccc1-c1cnc2ccc(N3CCN(C(=O)OC(C)C)CC3)nn12 (as salt: hydrochloride) [Example 5.6.115, 4-[3-(2-Methoxy-phenyl)-imidazo[1,2-b]pyridazin-6-yl]-piperazine-1-carboxylic acid isopropyl ester] |
| 277 to 278 °C (dec.) | – | – | CC(C)(C)C(=O)N1CCN(c2ccc3ncc(-c4ccccc4)n3n2)CC1 (as salt: hydrochloride) [Example 5.6.125, 2,2-Dimethyl-1-[4-(3-phenyl-imidazo[1,2-b]pyridazin-6-yl)-piperazin-1-yl]-propan-1-one] |
| 216 to 217 °C (dec.) | – | – | CC(C)OC(=O)N1CCN(c2ccc3ncc(-c4ccccc4OC(C)C)n3n2)CC1 (as salt: hydrochloride) [Example 5.6.145, 4-[3-(2-Isopropoxy-phenyl)-imidazo[1,2-b]pyridazin-6-yl]-piperazine-1-carboxylic acid isopropyl ester] |
| 179 to 181 °C (dec.) | – | – | COc1ncccc1-c1cnc2ccc(N3CCN(C(=O)OC(C)C)CC3)nn12 (as salt: hydrochloride) [Example 5.6.151, 4-[3-(2-Methoxy-pyridin-3-yl)-imidazo[1,2-b]pyridazin-6-yl]-piperazine-1-carboxylic acid isopropyl ester] |
| 210 to 211 °C (dec.) | – | – | CC(C)(C)NC(=O)N1CCN(c2ccc3ncc(-c4ccccc4)n3n2)CC1 (as salt: hydrochloride) [N-(tert-Butyl)-4-(3-phenylimidazo[1,2-b]pyridazin-6-yl)piperazine-1-carboxamide] |
| 217 to 218 °C (dec.) | – | – | CC(C)NC(=O)N1CCN(c2ccc3ncc(-c4ccccc4)n3n2)CC1 (as salt: hydrochloride) [N-Isopropyl-4-(3-phenylimidazo[1,2-b]pyridazin-6-yl)piperazine-1-carboxamide] |
| 276 to 277 °C (dec.) | – | – | CC(C)SC(=O)N1CCN(c2ccc3ncc(-c4ccccc4)n3n2)CC1 (as salt: hydrochloride) [S-Isopropyl 4-(3-phenylimidazo[1,2-b]pyridazin-6-yl)piperazine-1-carbothioate] |
| 202 to 203 °C | – | – | O=C(N1CCCC1)N1CCN(c2ccc3ncc(-c4ccccn4)n3n2)CC1 (as salt: hydrochloride) [[4-(3-Pyridin-2-yl-imidazo[1,2-b]pyridazin-6-yl)-piperazin-1-yl]-pyrrolidin-1-yl-methanone] |
| – | ≤ 100 | ≤ 10 | CCOc1ccccc1-c1cnc2ccc(N3CCN(C(=O)OC(C)C)CC3)nn12 [isopropyl 4-(3-(2-ethoxyphenyl)imidazo[1,2-b]pyridazin-6-yl)piperazine-1-carboxylate] |
| – | ≤ 10 | ≤ 10 | CCOc1ncccc1-c1cnc2ccc(N3CCN(C(=O)OC(C)C)CC3)nn12 [isopropyl 4-(3-(2-ethoxypyridin-3-yl)imidazo[1,2-b]pyridazin-6-yl)piperazine-1-carboxylate] |
| – | ≤ 100 | ≤ 10 | COc1cccc(-c2cnc3ccc(N4CCN(C(=O)OC(C)C)CC4)nn23)c1F [isopropyl 4-(3-(2-fluoro-3-methoxyphenyl)imidazo[1,2-b]pyridazin-6-yl)piperazine-1-carboxylate] |
| – | ≤ 100 | ≤ 10 | CC(C)OC(=O)N1CCN(c2ccc3ncc(-c4ccccc4F)n3n2)CC1 [isopropyl 4-(3-(2-fluorophenyl)imidazo[1,2-b]pyridazin-6-yl)piperazine-1-carboxylate] |

| melting point | IC50 (AAK1 [1]) [nM] | IC50 (AAK1 [2]) [nM] | SMILES |
| --- | --- | --- | --- |
| – | ≤ 10 | ≤ 10 | COc1nc(C)ccc1-c1cnc2ccc(N3CCN(C(=O)OC(C)C)CC3)nn12 [isopropyl 4-(3-(2-methoxy-6-methylpyridin-3-yl)imidazo[1,2-b]pyridazin-6-yl)piperazine-1-carboxylate] |
| – | ≤ 10 | ≤ 10 | COc1ccccc1-c1cnc2ccc(N3CCN(C(=O)OC(C)C)CC3)nn12 [isopropyl 4-(3-(2-methoxyphenyl)imidazo[1,2-b]pyridazin-6-yl)piperazine-1-carboxylate] |
| – | ≤ 10 | ≤ 10 | COc1ncccc1-c1cnc2ccc(N3CCN(C(=O)OC(C)C)CC3)nn12 [isopropyl 4-(3-(2-methoxypyridin-3-yl)imidazo[1,2-b]pyridazin-6-yl)piperazine-1-carboxylate] |
| – | ≤ 100 | ≤ 10 | COc1cc(-c2cnc3ccc(N4CCN(C(=O)OC(C)C)CC4)nn23)ccn1 [isopropyl 4-(3-(2-methoxypyridin-4-yl)imidazo[1,2-b]pyridazin-6-yl)piperazine-1-carboxylate] |
| – | ≤ 100 | ≤ 10 | CC(C)OC(=O)N1CCN(c2ccc3ncc(-c4ccc[nH]c4=O)n3n2)CC1 [isopropyl 4-(3-(2-oxo-1,2-dihydropyridin-3-yl)imidazo[1,2-b]pyridazin-6-yl)piperazine-1-carboxylate] |
| – | ≤ 1000 | ≤ 10 | CC(C)OC(=O)N1CCN(c2ccc3ncc(-c4cccc(Cl)c4)n3n2)CC1 [isopropyl 4-(3-(3-chlorophenyl)imidazo[1,2-b]pyridazin-6-yl)piperazine-1-carboxylate] |
| – | ≤ 100 | ≤ 10 | COc1cccc(-c2cnc3ccc(N4CCN(C(=O)OC(C)C)CC4)nn23)c1 [isopropyl 4-(3-(3-methoxyphenyl)imidazo[1,2-b]pyridazin-6-yl)piperazine-1-carboxylate] |
| – | ≤ 10 | ≤ 10 | CC(C)OC(=O)N1CCN(c2ccc3ncc(-c4ccc(CN)cc4)n3n2)CC1 [isopropyl 4-(3-(4-(aminomethyl)phenyl)imidazo[1,2-b]pyridazin-6-yl)piperazine-1-carboxylate] |
| – | ≤ 10 | ≤ 10 | COc1cc(C)c(F)cc1-c1cnc2ccc(N3CCN(C(=O)OC(C)C)CC3)nn12 [isopropyl 4-(3-(5-fluoro-2-methoxy-4-methylphenyl)imidazo[1,2-b]pyridazin-6-yl)piperazine-1-carboxylate] |
| – | ≤ 10 | ≤ 10 | COc1ccc(F)cc1-c1cnc2ccc(N3CCN(C(=O)OC(C)C)CC3)nn12 [isopropyl 4-(3-(5-fluoro-2-methoxyphenyl)imidazo[1,2-b]pyridazin-6-yl)piperazine-1-carboxylate] |
| – | ≤ 10 | ≤ 10 | COc1ncc(F)cc1-c1cnc2ccc(N3CCN(C(=O)OC(C)C)CC3)nn12 [isopropyl 4-(3-(5-fluoro-2-methoxypyridin-3-yl)imidazo[1,2-b]pyridazin-6-yl)piperazine-1-carboxylate] |
| – | ≤ 100 | ≤ 10 | O=C(N1CCCCC1)N1CCN(c2ccc3ncc(-c4ccccn4)n3n2)CC1 [piperidin-1-yl(4-(3-(pyridin-2-yl)imidazo[1,2-b]pyridazin-6-yl)piperazin-1-yl)methanone] |
| – | ≤ 1000 | ≤ 10 | COc1ccccc1-c1cnc2ccc(N3CCC(N(C)C(=O)OC(C)(C)C)C3)nn12 (centres unmarked) [tert-butyl (1-(3-(2-methoxyphenyl)imidazo[1,2-b]pyridazin-6-yl)pyrrolidin-3-yl)(methyl)carbamate] |
| – | ≤ 100 | ≤ 10 | COc1ncccc1-c1cnc2ccc(N3CCC(N(C)C(=O)OC(C)(C)C)C3)nn12 (centres unmarked) [tert-butyl (1-(3-(2-methoxypyridin-3-yl)imidazo[1,2-b]pyridazin-6-yl)pyrrolidin-3-yl)(methyl)carbamate] |
| – | ≤ 100 | ≤ 100 | CN(C(=O)OC(C)(C)C)C1CCN(c2ccc3ncc(-c4ccccc4)n3n2)C1 (centres unmarked) [tert-butyl methyl(1-(3-phenylimidazo[1,2-b]pyridazin-6-yl)pyrrolidin-3-yl)carbamate] |
| – | ≤ 100 | ≤ 10 | COc1ncccc1-c1cnc2ccc(N3CC[C@H](N(C)C(=O)OC(C)(C)C)C3)nn12 [{(S)-1-[3-(2-Methoxy-pyridin-3-yl)-imidazo[1,2-b]pyridazin-6-yl]-pyrolidin-3-yl}-methyl-carbamic acid tert-butyl ester] |
| – | ≤ 10 | ≤ 10 | COc1ncccc1-c1cnc2ccc(N3CC[C@H](N(C)C(=O)OC(C)C)C3)nn12 [{(S)-1-[3-(2-Methoxy-pyridin-3-yl)-imidazo[1,2-b]pyridazin-6-yl]-pyrrolidin-3-yl}-methyl-carbamic acid isopropyl ester] |
